Data taken from US10906915B2, “Substituted pyrazoloazepin-4-ones and their use as phosphodiesterase inhibitors” (LEO Pharma A/S, priority 2016, dated 2021).

Each compound was assayed against human PDE4D catalytic domain (UniProt no. Q08499) (Homo sapiens (Human), UniProt Q08499) (assay: PDE4 assay (TR-FRET, FAM-cAMP cleavage)). Conditions: human PDE4D catalytic domain; molar concentration giving 50% inhibition of substrate cleavage; read-out: PDE4 IC50 range.
Sequence of human PDE4D catalytic domain (Q08499 380-740 limits assumed): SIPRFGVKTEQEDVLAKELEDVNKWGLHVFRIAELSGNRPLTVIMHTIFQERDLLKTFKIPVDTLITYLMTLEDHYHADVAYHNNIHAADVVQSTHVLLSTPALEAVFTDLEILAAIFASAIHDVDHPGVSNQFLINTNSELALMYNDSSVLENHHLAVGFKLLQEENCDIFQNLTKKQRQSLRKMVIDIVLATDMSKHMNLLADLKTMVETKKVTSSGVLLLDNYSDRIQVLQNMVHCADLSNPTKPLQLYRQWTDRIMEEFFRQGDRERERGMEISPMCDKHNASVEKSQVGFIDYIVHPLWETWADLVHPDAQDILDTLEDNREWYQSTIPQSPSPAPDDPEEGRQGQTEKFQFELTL
Type: biochemical
Procedure, shortened: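 PDE4D catalytic domain ([…]) was incubated with unlabelled cAMP plus FAM-cAMP and titrated compound, stopped with binding buffer of metal-ion nanoparticles and Tb donor. AMP generation read by TR-FRET; IC50 as 50% inhibition of cleavage versus controls, reported as nM ranges.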
For `CCc1nn(C[C@@H](C)COC(=O)c2cccc(C(F)(F)F)c2C)c2c1C(=O)NCC1(CCOCC1)C2` [Example 217, [(2R)-3-(3-ethyl-4-oxo-spiro[6,8-dihydro-5H-pyrazolo[4,3-c]azepine-7,4′-tetrahydropyran]-1-yl)-2-methyl-propyl] 2-methyl-3-(trifluoromethyl)benzoate], the IC50 was < 100 nM. Work on `CCc1nn(CCCOC(=O)c2ccc(C(=O)N3CCN(C)CC3)cc2)c2c1C(=O)NCC1(CCOCC1)C2` [Example 148, 3-(3-ethyl-4-oxo-spiro[6,8-dihydro-5H-pyrazolo[4,3-c]azepine-7,4′-tetrahydropyran]-1-yl)propyl 4-(4-methylpiperazine-1-carbonyl)benzoate] yielded an IC50 of 100 to 500 nM. For `CCc1nn(C[C@@H](C)COC(=O)c2ccc(S(=O)(=O)NC)cc2)c2c1C(=O)NCC1(CCOCC1)C2` [Example 3, [(2R)-3-(3-Ethyl-4-oxo-spiro[6,8-dihydro-5H-pyrazolo[4,3-c]azepine-7,4′-tetrahydro-pyran]-1-yl)-2-methyl-propyl] 4-(methylsulfamoyl)benzoate], the IC50 was < 100 nM. In the case of `CCc1nn(C[C@@H](C)COC(=O)c2cccc(C(C)=O)c2)c2c1C(=O)NCC1(CCOCC1)C2` [Example 181, [(2R)-3-(3-ethyl-4-oxo-spiro[6,8-dihydro-5H-pyrazolo[4,3-c]azepine-7,4′-tetrahydropyran]-1-yl)-2-methyl-propyl] 3-acetylbenzoate], the IC50 is reported as < 100 nM. With `CCc1nn(CCCOC(=O)c2cccc(C(C)=O)c2)c2c1C(=O)NCC1(CCOCC1)C2` [Example 51, 3-(3-ethyl-4-oxo-spiro[6,8-dihydro-5H-pyrazolo[4,3-c]azepine-7,4′-tetrahydropyran]-1-yl)propyl 3-acetylbenzoate] the IC50 was < 100 nM. For `CCc1nn(CCCOC(=O)c2cc(C)ccc2F)c2c1C(=O)NCC1(CCOCC1)C2` [Example 37, 3-(3-ethyl-4-oxo-spiro[6,8-dihydro-5H-pyrazolo[4,3-c]azepine-7,4′-tetrahydropyran]-1-yl)propyl 2-fluoro-5-methyl-benzoate], the IC50 was < 100 nM. `CCc1nn(C[C@@H](C)COC(=O)c2cc(C(F)(F)F)ccc2C)c2c1C(=O)NCC1(CCOCC1)C2` [Example 218, [(2R)-3-(3-ethyl-4-oxo-spiro[6,8-dihydro-5H-pyrazolo[4,3-c]azepine-7,4′-tetrahydropyran]-1-yl)-2-methyl-propyl] 2-methyl-5-(trifluoromethyl)benzoate] was tested, and the IC50 was < 100 nM. For `CCc1nn(CCCOC(=O)c2cccc(C(F)(F)F)c2)c2c1C(=O)NCC1(CCOCC1)C2` [Example 96, 3-(3-ethyl-4-oxo-spiro[6,8-dihydro-5H-pyrazolo[4,3-c]azepine-7,4′-tetrahydropyran]-1-yl)propyl 3-(trifluoromethyl)benzoate], the IC50 was < 100 nM.

Same assay, conditions: read-out: PDE4 IC50 range
For `CCc1nn(CC(C)(C)COC(=O)C2CCCC2)c2c1C(=O)NCC1(CCOCC1)C2` [Example 281, [3-(3-ethyl-4-oxo-spiro[6,8-dihydro-5H-pyrazolo[4,3-c]azepine-7,4′-tetrahydropyran]-1-yl)-2,2-dimethyl-propyl] cyclopentanecarboxylate], the IC50 was < 100 nM. For `CCc1nn(CCCCOC(=O)c2ccccc2)c2c1C(=O)NCC1(CCOCC1)C2` [Example 363, 4-(3-ethyl-4-oxo-spiro[6,8-dihydro-5H-pyrazolo[4,3-c]azepine-7,4′-tetrahydropyran]-1-yl)butyl benzoate], the IC50 was < 100 nM. `CCc1nn(CC(C)(C)COC(=O)c2ccc(C(C)=O)cc2)c2c1C(=O)NCC1(CCOCC1)C2` [Example 295, [3-(3-ethyl-4-oxo-spiro[6,8-dihydro-5H-pyrazolo[4,3-c]azepine-7,4′-tetrahydropyran]-1-yl)-2,2-dimethyl-propyl] 4-acetylbenzoate] was tested, and the IC50 was < 100 nM. `CCc1nn(CC(C)(C)COC(=O)c2ccccc2S(C)(=O)=O)c2c1C(=O)NCC1(CCOCC1)C2` [Example 307, [3-(3-ethyl-4-oxo-spiro[6,8-dihydro-5H-pyrazolo[4,3-c]azepine-7,4′-tetrahydropyran]-1-yl)-2,2-dimethyl-propyl] 2-methylsulfonylbenzoate] was tested, and the IC50 was < 100 nM.
